Patent US9072762B2, “Natural composition to decrease effects of a high fat diet” (Board of Supervisors of Louisiana State University And …, priority 2009, dated 2015)

Key:
VEGF = test: Western blot of HUVEC cell lysates for VEGF expression; type: cell-based, human; settings: 24 hrs, concentrations up to about 40 μg/ml
Description: (§1) The HUVEC assay used human umbilical vein endothelial cells purchased from the American Type Culture Collection (ATCC # CRL-1730, Manassas, Va.). Human umbilical vein endothelial cells (HUVEC) were grown in M199 media containing 20% fetal bovine serum, 30 μg/ml endothelial cell growth supplements, 4 mM L-glutamin, 100 U/ml penicillin, and 100 μg/ml streptomycin. Cells were incubated at 37° C. in a humidified atmosphere of 5% CO2. […] Cells were then lysed with lysis buffer containing 20 mM MOPS, 2 mM EGTA, 5 mM EDTA, 30 mM NaF, 40 mM (3-glycerophosphate, 20 mM sodium pyruvate, 0.5% Triton X-100, and 1 mM sodium orthovanadate with protease inhibitor cocktail (Sigma), and the cell lysates were subjected to protein analysis and western blotting analysis to assess for VEGF (vascular endothelial growth factor), FGF or bFGF (basic fibroblast growth factor), and FLK-1 (a VEGFR2 receptor protein) using the relevant antibodies of VEFG (R&D System), bFGF (Upstate Biotechnology); FLK-1 (Santa Cruz Biotechnology). (See Ma, J. et al., “PTEN regulate angiogenesis through PI3k/AktNEGF signaling pathway in human pancreatic cancer cells,” Mol. Cell Biochem., vol. 331, pp. 161-171 (2009); and Sukhthanjar, M., et al., “A green tea component suppresses posttranslational expression of basic fibroblast growth factor in colorectal cancer. Gastroenterology,” vol. 134, pp. 1972-1980 (2008)). β-Actin was used as a quality control of the assays.

bFGF = test: Western blot of HUVEC cell lysates for bFGF expression; type: cell-based, human; settings: 24 hrs, concentrations up to about 40 μg/ml
Description: as §1

[1] = type: in vivo, rat; settings: for Oral bioavailability / absorption: rat, in vivo
Description: Thirty-two normal male SD rats were used in the experiment. Prior to treatment, all rats were fasted overnight. The treated group (n=24) received the RUS extract at a dose of 1 g/kg of body weight (0.1% w/w), and the control group (n=8) received the same volume of water via daily gavage for 3 consecutive days. All rats were given free access to food and water after the gavage. Urine was collected cumulatively for 24 hours on the third day after treatment began.

[2] = system: FLK-1 (a VEGFR2 receptor protein); test: Western blot of HUVEC cell lysates for FLK-1 expression; type: cell-based, human; settings: 24 hrs, concentrations up to about 40 μg/ml
Description: The HUVEC assay used human umbilical vein endothelial cells purchased from the American Type Culture Collection (ATCC # CRL-1730, Manassas, Va.). Human umbilical vein endothelial cells (HUVEC) were grown in M199 media containing 20% fetal bovine serum, 30 μg/ml endothelial cell growth supplements, 4 mM L-glutamin, 100 U/ml penicillin, and 100 μg/ml streptomycin. Cells were incubated at 37° C. in a humidified atmosphere of 5% CO2. […] Cells were then lysed with lysis buffer containing 20 mM MOPS, 2 mM EGTA, 5 mM EDTA, 30 mM NaF, 40 mM (3-glycerophosphate, 20 mM sodium pyruvate, 0.5% Triton X-100, and 1 mM sodium orthovanadate with protease inhibitor cocktail (Sigma), and the cell lysates were subjected to protein analysis and western blotting analysis to assess for VEGF (vascular endothelial growth factor), FGF or bFGF (basic fibroblast growth factor), and FLK-1 (a VEGFR2 receptor protein) using the relevant antibodies of VEFG (R&D System), bFGF (Upstate Biotechnology); FLK-1 (Santa Cruz Biotechnology). (See Ma, J. et al., “PTEN regulate angiogenesis through PI3k/AktNEGF signaling pathway in human pancreatic cancer cells,” Mol. Cell Biochem., vol. 331, pp. 161-171 (2009); and Sukhthanjar, M., et al., “A green tea component suppresses posttranslational expression of basic fibroblast growth factor in colorectal cancer. Gastroenterology,” vol. […]

[3] = rats, 24 hr urine after oral RUS 1.0 g/kg of body weight

| Oral bioavailability / absorption [1] | Unmetabolized compound in the urine [1, 3] [µg] | Unmetabolized compound in urine as % of amount orally administered [1, 3] | Compound | Expression of VEGF (VEGF) | Expression of bFGF (bFGF) | Expression of FLK-1 [2] |
| --- | --- | --- | --- | --- | --- | --- |
| orally bioavailable | – | – | O=c1oc2c(O)c(O)cc3c(=O)oc4c(O)c(O)cc1c4c23 [ellagic acid] | inhibited the expression of VEGF in a concentration-dependent manner | did not suppress the expression of bFGF | – |
| – | 91.7 | about 4.5% | O=C(O)c1cc(O)c(O)c(O)c1 [gallic acid] | inhibited the expression of VEGF in a concentration-dependent manner | did not suppress the expression of bFGF | slightly reduced the expression of FLK-1 |
| orally bioavailable | – | – | C=C1C[C@@]23CC[C@H]4[C@@](C)(CCC[C@@]4(C)C(=O)O[C@@H]4O[C@H](CO)[C@@H](O)[C@H](O)[C@H]4O)[C@@H]2CC[C@]1(O[C@@H]1O[C@H](CO)[C@@H](O)[C@H](O)[C@H]1O)C3 [rubusoside] | did not inhibit the expression of either bFGF or VEGF | did not inhibit the expression of either bFGF or VEGF | reduced the expression of FLK-1 |
